Experimental data published in patent publication US20250066724A1, “GENERATION OF HUMAN SPINAL CORD NEURAL STEM CELLS” (THE REGENTS OF THE UNIVERSITY OF CALIFORNIA, priority 2023, published 2025).

Key:
[1] = system: neurons differentiated from H9-derived spinal cord NSCs; experiment: Whole-cell patch clamp electrophysiology of neurons differentiated from H9-derived spinal cord NSCs; conditions: spontaneous postsynaptic currents, all three drugs
SOX1+/SOX2+/Nestin+ NSCs = experiment: Long-term maintenance culture of spinal cord NSCs; type: cell-based, human; conditions: due to differentiation, data not shown

How did the “spiking of neuron after glutamate receptor and GABA-A receptor antagonists” value (“spiking of neuron” below) [1] turn out when `N[C@@H](CCCP(=O)(O)O)C(=O)O` [APV] was run?
The value was “no change in spiking”.

How did the “culture maintenance over time on omission of the component from maintenance medium” value (SOX1+/SOX2+/Nestin+ NSCs) turn out when `Cc1c[nH]c(-c2cnc(NCCNc3ccc(C#N)cn3)nc2-c2ccc(Cl)cc2Cl)n1` [CHIR, CHIR99021] was run?
The value was “failure to sustain cultures”.

How did the “spiking of neuron” value [1] turn out when `O=[N+]([O-])c1cc2nc(O)c(O)nc2cc1[N+](=O)[O-]` [DNQX] was run?
The value was “no change in spiking”.

`CNC1CCC(N(Cc2cccc(-c3ccncc3)c2)C(=O)c2sc3c(F)ccc(F)c3c2Cl)CC1` (centres unmarked) [Hh-Ag1.5] was tested. Which “culture maintenance over time on omission of the component from maintenance medium” value (SOX1+/SOX2+/Nestin+ NSCs) did it give?
The value was “failure to sustain cultures”.

How did the “spiking of neuron” value [1] turn out when picrotoxin was run?
The value was “no change in spiking”.
